{"source": "PubChem BioAssay (NCI)", "experiment_in_all_cases": "NCI anticancer screen, dose series, 384-well format", "key": {"MDA-MB-435 melanoma": {"system": "MDA-MB-435 melanoma"}, "NCI-H322M lung": {"system": "NCI-H322M lung"}, "MALME-3M melanoma": {"system": "MALME-3M melanoma"}, "UACC-257 melanoma": {"system": "UACC-257 melanoma"}, "NCI-H23 lung": {"system": "NCI-H23 lung"}, "OVCAR-3 ovarian": {"system": "OVCAR-3 ovarian"}, "A549 NSCLC": {"system": "A549 NSCLC"}, "PC-3 prostate": {"system": "PC-3 prostate"}, "SK-MEL-5 melanoma": {"system": "SK-MEL-5 melanoma"}, "SK-OV-3 ovarian": {"system": "SK-OV-3 ovarian"}, "NCI-H226 lung": {"system": "NCI-H226 lung"}, "NCI-H460 NSCLC": {"system": "NCI-H460 NSCLC"}, "MDA-MB-468 breast": {"system": "MDA-MB-468 breast"}, "HL-60(TB) leukemia": {"system": "HL-60(TB) leukemia"}, "HCC-2998 colon": {"system": "HCC-2998 colon"}, "M14 melanoma": {"system": "M14 melanoma"}, "IGROV1 ovarian": {"system": "IGROV1 ovarian"}, "HOP-92 NSCLC": {"system": "HOP-92 NSCLC"}, "MDA-MB-231 breast": {"system": "MDA-MB-231 breast"}, "RPMI-8226 leukemia": {"system": "RPMI-8226 leukemia"}, "OVCAR-5 ovarian": {"system": "OVCAR-5 ovarian"}, "CCRF-CEM leukemia": {"system": "CCRF-CEM leukemia"}, "SNB-75 CNS": {"system": "SNB-75 CNS"}, "LOX IMVI melanoma": {"system": "LOX IMVI melanoma"}, "SF-268 CNS": {"system": "SF-268 CNS"}, "TK-10 renal": {"system": "TK-10 renal"}, "786-0 renal": {"system": "786-0 renal"}, "T-47D breast": {"system": "T-47D breast"}}, "note": "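GI50 = concentration required for 50% inhibition of growth. The concentration for full growth arrest is given as TGI.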", "data": [{"smiles": "COc1ccc(-c2c(Nc3ccccn3)nc3c(C4=CCCCC4)c(-c4ccccc4)[nH]n3c2=O)cc1", "values": [{"measurement": "GI50", "setting": "MDA-MB-435 melanoma", "value": 3.08, "unit": "µM"}, {"measurement": "TGI", "setting": "MDA-MB-435 melanoma", "value": "> 100", "unit": "µM"}, {"measurement": "GI50", "setting": "NCI-H322M lung", "value": 1.06, "unit": "µM"}, {"measurement": "TGI", "setting": "NCI-H322M lung", "value": "> 100", "unit": "µM"}, {"measurement": "GI50", "setting": "MALME-3M melanoma", "value": 1.29, "unit": "µM"}, {"measurement": "TGI", "setting": "MALME-3M melanoma", "value": "> 100", "unit": "µM"}, {"measurement": "GI50", "setting": "UACC-257 melanoma", "value": 1.61, "unit": "µM"}, {"measurement": "TGI", "setting": "UACC-257 melanoma", "value": "> 100", "unit": "µM"}, {"measurement": "GI50", "setting": "NCI-H23 lung", "value": 1.33, "unit": "µM"}, {"measurement": "TGI", "setting": "NCI-H23 lung", "value": "> 100", "unit": "µM"}, {"measurement": "GI50", "setting": "OVCAR-3 ovarian", "value": 1, "unit": "µM"}, {"measurement": "TGI", "setting": "OVCAR-3 ovarian", "value": 3.32, "unit": "µM"}, {"measurement": "GI50", "setting": "A549 NSCLC", "value": 1.44, "unit": "µM"}, {"measurement": "TGI", "setting": "A549 NSCLC", "value": "> 100", "unit": "µM"}, {"measurement": "GI50", "setting": "PC-3 prostate", "value": 1.58, "unit": "µM"}, {"measurement": "TGI", "setting": "PC-3 prostate", "value": "> 100", "unit": "µM"}, {"measurement": "GI50", "setting": "SK-MEL-5 melanoma", "value": 0.835, "unit": "µM"}, {"measurement": "TGI", "setting": "SK-MEL-5 melanoma", "value": 2.64, "unit": "µM"}, {"measurement": "GI50", "setting": "SK-OV-3 ovarian", "value": 0.604, "unit": "µM"}, {"measurement": "TGI", "setting": "SK-OV-3 ovarian", "value": "> 100", "unit": "µM"}, {"measurement": "GI50", "setting": "NCI-H226 lung", "value": 2.01, "unit": "µM"}, {"measurement": "TGI", "setting": "NCI-H226 lung", "value": "> 100", "unit": "µM"}, {"measurement": "GI50", "setting": "NCI-H460 NSCLC", "value": 0.353, "unit": "µM"}, {"measurement": "TGI", "setting": "NCI-H460 NSCLC", "value": 2.76, "unit": "µM"}, {"measurement": "GI50", "setting": "MDA-MB-468 breast", "value": 0.967, "unit": "µM"}, {"measurement": "TGI", "setting": "MDA-MB-468 breast", "value": 2.78, "unit": "µM"}, {"measurement": "GI50", "setting": "HL-60(TB) leukemia", "value": 0.58, "unit": "µM"}, {"measurement": "TGI", "setting": "HL-60(TB) leukemia", "value": 1.85, "unit": "µM"}, {"measurement": "GI50", "setting": "HCC-2998 colon", "value": 2.41, "unit": "µM"}, {"measurement": "TGI", "setting": "HCC-2998 colon", "value": "> 100", "unit": "µM"}, {"measurement": "GI50", "setting": "M14 melanoma", "value": 0.841, "unit": "µM"}, {"measurement": "TGI", "setting": "M14 melanoma", "value": "> 100", "unit": "µM"}, {"measurement": "GI50", "setting": "IGROV1 ovarian", "value": 2.45, "unit": "µM"}, {"measurement": "TGI", "setting": "IGROV1 ovarian", "value": "> 100", "unit": "µM"}, {"measurement": "GI50", "setting": "HOP-92 NSCLC", "value": 1.94, "unit": "µM"}, {"measurement": "TGI", "setting": "HOP-92 NSCLC", "value": 74.9, "unit": "µM"}, {"measurement": "GI50", "setting": "MDA-MB-231 breast", "value": 1.24, "unit": "µM"}, {"measurement": "TGI", "setting": "MDA-MB-231 breast", "value": 6.85, "unit": "µM"}, {"measurement": "GI50", "setting": "RPMI-8226 leukemia", "value": 0.288, "unit": "µM"}, {"measurement": "TGI", "setting": "RPMI-8226 leukemia", "value": 1.88, "unit": "µM"}, {"measurement": "GI50", "setting": "OVCAR-5 ovarian", "value": 2.32, "unit": "µM"}, {"measurement": "TGI", "setting": "OVCAR-5 ovarian", "value": "> 100", "unit": "µM"}, {"measurement": "GI50", "setting": "CCRF-CEM leukemia", "value": 0.304, "unit": "µM"}, {"measurement": "TGI", "setting": "CCRF-CEM leukemia", "value": 1.1, "unit": "µM"}, {"measurement": "GI50", "setting": "SNB-75 CNS", "value": 8.11, "unit": "µM"}, {"measurement": "TGI", "setting": "SNB-75 CNS", "value": "> 100", "unit": "µM"}, {"measurement": "GI50", "setting": "LOX IMVI melanoma", "value": 0.989, "unit": "µM"}, {"measurement": "TGI", "setting": "LOX IMVI melanoma", "value": 8.41, "unit": "µM"}, {"measurement": "GI50", "setting": "SF-268 CNS", "value": 0.589, "unit": "µM"}, {"measurement": "TGI", "setting": "SF-268 CNS", "value": "> 100", "unit": "µM"}, {"measurement": "GI50", "setting": "TK-10 renal", "value": 1.64, "unit": "µM"}, {"measurement": "TGI", "setting": "TK-10 renal", "value": "> 100", "unit": "µM"}, {"measurement": "GI50", "setting": "786-0 renal", "value": 2.41, "unit": "µM"}, {"measurement": "TGI", "setting": "786-0 renal", "value": "> 100", "unit": "µM"}, {"measurement": "GI50", "setting": "T-47D breast", "value": 1.06, "unit": "µM"}, {"measurement": "TGI", "setting": "T-47D breast", "value": "> 100", "unit": "µM"}]}]}
